According to BindingDB's records for doi:10.1021/acs.jmedchem.0c02069 (Indiana University, 2021):
Peptide text beside a SMILES is read from it.

Target: Glucagon receptor (Homo sapiens, UniProt P47871)
Assay: Displacement of 125I-glucagon from human GCGR expressed in HEK293 cells membranes incubated for 6 hrs by liquid scintillation counting method

Sequence of Glucagon receptor (P47871 whole entry): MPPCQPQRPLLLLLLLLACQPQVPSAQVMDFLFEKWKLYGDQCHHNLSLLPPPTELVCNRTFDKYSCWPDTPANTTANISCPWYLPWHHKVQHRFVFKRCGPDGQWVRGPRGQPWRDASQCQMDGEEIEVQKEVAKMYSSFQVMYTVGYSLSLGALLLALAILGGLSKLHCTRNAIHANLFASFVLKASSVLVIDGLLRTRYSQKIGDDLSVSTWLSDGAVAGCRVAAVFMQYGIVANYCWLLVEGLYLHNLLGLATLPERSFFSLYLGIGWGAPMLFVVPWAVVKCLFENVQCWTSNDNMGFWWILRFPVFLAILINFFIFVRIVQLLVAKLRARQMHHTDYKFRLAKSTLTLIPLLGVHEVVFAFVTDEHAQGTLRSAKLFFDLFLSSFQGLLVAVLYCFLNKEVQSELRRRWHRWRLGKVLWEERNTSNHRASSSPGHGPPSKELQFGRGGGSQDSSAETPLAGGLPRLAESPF

Row | SMILES | IC50 [nM]
1 | CSCC[C@H](NC(=O)[C@H](CC(C)C)NC(=O)[C@H](Cc1c[nH]c2ccccc12)NC(=O)[C@H](CCC(N)=O)NC(=O)[C@@H](NC(=O)[C@H](Cc1ccccc1)NC(=O)[C@H](CC(=O)O)NC(=O)[C@H](CCC(N)=O)NC(=O)[C@H](C)NC(=O)[C@H](CCCNC(=N)N)NC(=O)[C@H](CCCNC(=N)N)NC(=O)[C@H](CO)NC(=O)[C@H](CC(=O)O)NC(=O)[C@H](CC(C)C)NC(=O)[C@H](Cc1ccc(O)cc1)NC(=O)[C@H](CCCCN)NC(=O)[C@H](CO)NC(=O)[C@H](Cc1ccc(O)cc1)NC(=O)[C@H](CSCC(=O)O)NC(=O)[C@H](CO)NC(=O)[C@@H](NC(=O)[C@H](Cc1ccccc1)NC(=O)[C@@H](NC(=O)CNC(=O)[C@H](CCC(N)=O)NC(=O)[C@@H](N)CO)[C@@H](C)O)[C@@H](C)O)C(C)C)C(=O)N[C@@H](CC(N)=O)C(=O)N[C@H](C(N)=O)[C@@H](C)O | 13
2 | CSCC[C@H](NC(=O)[C@H](CC(C)C)NC(=O)[C@H](Cc1c[nH]c2ccccc12)NC(=O)[C@H](CCC(N)=O)NC(=O)[C@@H](NC(=O)[C@H](Cc1ccccc1)NC(=O)[C@H](CC(=O)O)NC(=O)[C@H](CCC(N)=O)NC(=O)[C@H](C)NC(=O)[C@H](CCCNC(=N)N)NC(=O)[C@H](CCCNC(=N)N)NC(=O)[C@H](CO)NC(=O)[C@H](CC(=O)O)NC(=O)[C@H](CC(C)C)NC(=O)[C@H](Cc1ccc(O)cc1)NC(=O)[C@H](CCCCN)NC(=O)[C@H](CO)NC(=O)[C@H](Cc1ccc(O)cc1)NC(=O)[C@H](CCC(=O)O)NC(=O)[C@H](CO)NC(=O)[C@@H](NC(=O)[C@@H](O)Cc1ccccc1)[C@@H](C)O)C(C)C)C(=O)N[C@@H](CC(N)=O)C(=O)N[C@H](C(N)=O)[C@@H](C)O (HELM PEPTIDE1{[O=C([C@@H](O)Cc1ccccc1)[*:2]].T.S.E.Y.S.K.Y.L.D.S.R.R.A.Q.D.F.V.Q.W.L.M.N.T.[am]}$$$$V2.0) | 12
